Results on three compounds are retold here after paper PMC8754229 (Journal of Virology, 2022).

The conditions of data set [1]: statement in Discussion, no test described, ref not given; cited from earlier work.
Another data set concerns the target SARS-CoV-2 M^pro (Severe acute respiratory syndrome coronavirus 2, UniProt P0DTD1). It is filed as biochemical.

In the case of `CC(C)=CC[C@@H](O)C1=CC(=O)c2c(O)ccc(O)c2C1=O` [Shikonin], in data set [1], the “Cytotoxicity (in words)” value is recorded as “strong cytotoxicity”. Consider `CC(=O)O[C@H]1[C@H](OCCc2ccc(O)c(O)c2)O[C@H](CO[C@@H]2O[C@H](CO)[C@@H](O)[C@H](O)[C@H]2O)[C@@H](OC(=O)/C=C/c2ccc(O)c(O)c2)[C@@H]1OC[C@@H]1O[C@@H](C)[C@H](O)[C@@H](O)[C@H]1O` [tubuloside A], for which the “Inhibition against M^pro (in words)” value at SARS-CoV-2 M^pro is “none of them showed potent inhibition”. On to maltopentaose, for which the “Inhibition against M^pro (in words)” value on SARS-CoV-2 M^pro is “none of them showed potent inhibition”.
